Experiment [1] is described as follows: Inhibiting the production of hydrogen sulfide from heated minced mackerel. The settings on record: minced mackerel with 5% saccharide solution, headspace gas. The method, then: Five grams of minced mackerel, prepared by mincing commercialized mackerel without head part, internal organs and bone with a mincer to homogeneity, was placed in a 20-ml vial, and admixed with 5 ml of an aqueous solution containing on a dry solid basis 5% of “TREHA®”, a food grade hydrous α,α-trehalose commercialized by Hayashibara Biochemical laboratories, Inc., Okayama, Japan (purity 99.0% or more), sucrose (a commercialized granulated sugar), or a syrupy saccharide mixture containing saccharide derivatives of α,α-trehalose prepared in Example 1. The resulting vials were sealed with a butyl gum cap to prepare test samples. As a control, a vial containing 5 g of the minced mackerel and 5 ml of deionized water was sealed with a butyl gum cap for a control sample. […]
Similarly as in Experiment 4, the content of hydrogen sulfide was measured using 10 ml of a headspace gas by “GASTECH No. 4 LT”, a hydrogen sulfide detector commercialized by GL Science Corporation, under an aspiration time of one minute.
(§1) The values of the production of amines, hydrogen sulfide and aldehydes of each test sample were compared with the value of control defined as 100 to calculate the relative values thereof. And then, the relative rates of inhibiting the production of amines, hydrogen sulfide and aldehydes were respectively calculated by 100 minus each of the relative values.

A short description of experiment [2]: Inhibiting the production of lower aldehydes and 2,3-butandion from heated cacao powder. The settings on record: 1 g cacao powder in 4 ml of 2.5% saccharide solution; microwave, then 100° C. five minutes. The text has this:
“Stuffy smell”, meaning a kind of foreign smell generated from cocoa, chocolate, and compositions thereof during their processes, is known to deteriorate their flavor. 2,3-Butandion and lower aldehydes are known as a causative substance of foreign smell. On the other hand, […], classified in lower aldehydes, is known as one of the aromatic ingredients of chocolates. To confirm the effect of saccharide derivatives of α,α-trehalose on inhibiting the production of such compounds, the following experiment was carried out. Four milliliters of 2.5%, on a dry solid basis, saccharide solution containing either of sucrose, “TREHA®” (an α,α-trehalose commercialized by Hayashibara Biochemical Laboratories, Inc., Okayama, Japan), a commercialized enzyme-treated starch syrup and a syrupy saccharide mixture containing saccharide derivatives of α,α-trehalose prepared in Example 1 (on a dry solid basis about 53% of saccharide derivatives of α,α-trehalose) was placed in a 20-ml vial and admixed with 1 g of cacao powder. The resulting vial was covered with a plastic warp and heated by a microwave oven (500 W) for five seconds. As a control, 4 ml of distilled water and 1 g of cacao powder were placed in the vial and treated similarly as in the saccharide solutions. These vials were sealed with a butyl gum cap over the plastic wrap and heated at 100° C. in a heat block for five minutes. Two milliliters of the resulting headspace gas was subjected to gas chromatography to measure the contents of lower aldehydes and 2,3-butandion according to the method in Experiment 5-4. The amount of total aldehydes was calculated by totalizing the measured amounts of three kinds of aldehydes and other aldehydes listed in Table 8.
The resulting value of the production of aldehydes or 2,3-butandion of each of the test samples was compared with the value of control defined as 100 to calculate the relative value of the production of them. And then, the relative rate of inhibiting the production of them was calculated by 100 minus the relative value.

Experiment [3] can be described thus: Inhibiting the production of aldehydes from heated minced mackerel (headspace GC). The settings on record: minced mackerel with 5% saccharide solution; for Relative rate of inhibiting the production of acetaldehyde / Relative rate of inhibiting the production of butanal / Relative rate of inhibiting the production of decanal / Relative rate of inhibiting the production of heptanal / Relative rate of inhibiting the production of hexanal / Relative rate of inhibiting the production of nonanal / Relative rate of inhibiting the production of octanal / Relative rate of inhibiting the production of pentanal / Relative rate of inhibiting the production of propanal: headspace gas; for Relative rate of inhibiting the production of total aldehydes: sum of nine aldehydes. The method, then: Five grams of minced mackerel, prepared by mincing commercialized mackerel without head part, internal organs and bone with a mincer to homogeneity, was placed in a 20-ml vial, and admixed with 5 ml of an aqueous solution containing on a dry solid basis 5% of “TREHA®”, a food grade hydrous α,α-trehalose commercialized by Hayashibara Biochemical laboratories, Inc., Okayama, Japan (purity 99.0% or more), sucrose (a commercialized granulated sugar), or a syrupy saccharide mixture containing saccharide derivatives of α,α-trehalose prepared in Example 1. The resulting vials were sealed with a butyl gum cap to prepare test samples. As a control, a vial containing 5 g of the minced mackerel and 5 ml of deionized water was sealed with a butyl gum cap for a control sample. These samples were heated in boiled water for 15 minutes, cooled in running water, and heated at 80° C. for five minutes. The resulting headspace gas was taken from each of the vials and allowed to measure the contents of amines, hydrogen sulfide and aldehydes.
Measurement of the content of aldehydes was carried out by subjecting 2 ml of the headspace gas to analysis by GC-14B gas chromatography, a hydrogen flame ionizing detector commercialized by Shimazu co., Ltd., Kyoto, Japan, with flowing helium gas as a carrier gas in 1 ml/minute, and using TC-FFAP capillary column, 30min length and 0.52 mm in internal diameter (df=1 μm, sprit rate 1/30), commercialized by GL Science Company, with an increasing column temperature from 40° C. to 250° C. at a rate of 5° C./minute.
as §1

A short description of experiment [4]: Inhibiting the production of hydrogen sulfide from L-cysteine due to heat-decomposition. To be noted: 2.5 g L-cysteine hydrochloride and 5 g saccharide in 50 ml; 80° C. for 15 minutes; 100 minus relative value, control defined as 100. The source says: Two and half grams of precisely weighted L-cysteine hydrochloride (special reagent grade) and on a dry solid basis 5 g of a precisely measured saccharide sample; i.e. hydrous crystalline α,α-trehalose (reagent grade, purity 99.0% or more, commercialized by Hayashibara Biochemical Laboratories, Inc., Okayama, Japan), α-maltosyl α,α-trehalose prepared in the following Example 5 (purity 98.1%), or a reagent grade maltotetraose (purity 97.0% or more, commercialized by Hayashibara Biochemical Laboratories, Inc., Okayama, Japan); were placed in a 50-ml volume measuring flask and dissolved in deionized water to give a final volume of 50 ml. As a control, 2.5 g of precisely measured L-cysteine hydrochloride (special reagent grade) was dissolved in deionized water to give a final volume of 50 ml. Five ml of each sample was place into a 20-ml volume vial, sealed with a butyl gum cap, and kept at 80° C. for 15 minutes in an incubator. Hydrogen sulfide contained in 10 ml of the resulting headspace gas was measured by “GASTECH No. 4 LT”, a hydrogen sulfide detector commercialized by GL Science Corporation, under an aspiration time of one minute. The resulting value of the production of hydrogen sulfide of each test sample was compared with the value of control defined as 100 to calculate the relative value of the production of hydrogen sulfide. And then, the relative rate of inhibiting the production of hydrogen sulfide was calculated by 100 minus the relative value.

Experiment [5] can be described thus: Separately carried panel test of smell of cocoa samples. The settings on record: all of nine panels.

Consider `OC[C@H]1O[C@@](CO)(O[C@H]2O[C@H](CO)[C@@H](O)[C@H](O)[C@H]2O)[C@@H](O)[C@@H]1O` [Sucrose, sucrose], for which the “Relative rate of inhibiting the production of hydrogen sulfide” value in experiment [1] is 12. In addition, in experiment [2], the “Relative rate of inhibiting the production of 2,3-butandion” value is 95, the “Relative rate of inhibiting the production of acetaldehyde” value is reported as 44, the “Relative rate of inhibiting the production of isobutanal” value came to 52 and the “Relative rate of inhibiting the production of other aldehydes” value worked out at 0. Moreover, in experiment [2], the “Relative rate of inhibiting the production of propanal” value came out at 43 and the “Relative rate of inhibiting the production of total aldehydes” value is 48. Moreover, in experiment [3], the “Relative rate of inhibiting the production of acetaldehyde” value is listed as 13, the “Relative rate of inhibiting the production of butanal” value is −13, the “Relative rate of inhibiting the production of decanal” value was found to be 57 and the “Relative rate of inhibiting the production of heptanal” value came to 54. Moreover, in experiment [3], the “Relative rate of inhibiting the production of hexanal” value was found to be 33, the “Relative rate of inhibiting the production of nonanal” value is recorded as −54, the “Relative rate of inhibiting the production of octanal” value came to 43 and the “Relative rate of inhibiting the production of pentanal” value was −15. In addition, in experiment [3], the “Relative rate of inhibiting the production of propanal” value was found to be 32 and the “Relative rate of inhibiting the production of total aldehydes” value was 20.
In the case of `OC[C@H]1O[C@H](O[C@H]2O[C@H](CO)[C@@H](O)[C@H](O)[C@H]2O)[C@H](O)[C@@H](O)[C@@H]1O` [α,α-Trehalose, α,α-trehalose], the “Relative rate of inhibiting the production of hydrogen sulfide” value in experiment [4] was found to be 52. Moreover, the “Smell of cocoa sample judged by panels” value in experiment [5] was “favorite smell”. Besides, the “Relative rate of inhibiting the production of hydrogen sulfide” value in experiment [1] was determined as 26. Moreover, in experiment [2], the “Relative rate of inhibiting the production of 2,3-butandion” value stood at 100, the “Relative rate of inhibiting the production of acetaldehyde” value is reported as 50, the “Relative rate of inhibiting the production of isobutanal” value turned out to be 58 and the “Relative rate of inhibiting the production of other aldehydes” value is 0. In addition, in experiment [2], the “Relative rate of inhibiting the production of propanal” value was found to be 47 and the “Relative rate of inhibiting the production of total aldehydes” value is given as 53. In addition, in experiment [3], the “Relative rate of inhibiting the production of acetaldehyde” value turned out to be 73, the “Relative rate of inhibiting the production of butanal” value amounted to 100, the “Relative rate of inhibiting the production of decanal” value was found to be 76 and the “Relative rate of inhibiting the production of heptanal” value was 88. In addition, in experiment [3], the “Relative rate of inhibiting the production of hexanal” value came to 93, the “Relative rate of inhibiting the production of nonanal” value is 100, the “Relative rate of inhibiting the production of octanal” value is on record as 100 and the “Relative rate of inhibiting the production of pentanal” value worked out at 83. Besides, in experiment [3], the “Relative rate of inhibiting the production of propanal” value was 98 and the “Relative rate of inhibiting the production of total aldehydes” value is 80.

Source of the values: US20060134197A1, “Method of reducing unpleasant taste and/or unpleasant odor” (priority 2002, published 2006).
